System: corneal injury induced by dry eye conditions
Test: in vivo desiccation model of dry eye (methylene blue corneal staining, absorbance at 660 nm)
Design: species or system rabbit
Conditions: 15(S)-HETE 1 μM (0.000034% w/v), 50 μL topical O.D., 4-hour desiccation
Experimental: A composition of the present invention (Example 1, with the compound of formula (III) being 15(S)-HETE) was compared to an analogous composition without ethanol, an analogous composition without 15(S)-HETE, and analogous compositions with approximately one-half, one-tenth, and twice the amount of ethanol, respectively, in an in vivo desiccation model of dry eye.
Briefly, the assay was performed by first anesthetizing the animals with ketamine/xylazine/glycopyrrolate. The O.S. eye was lubricated with DuraTears® and remained taped shut throughout the experiment. The O.D. eye was then dosed with 50 μL of test composition (Example 1) or 50 μL of the same composition without ethanol and the eye taped shut for 10 minutes. The tape was then removed, the eyelids opened and a speculum was inserted into the eye. The eye was held open with the speculum for a period of 4 hours. During this time, the animals were monitored every 15 minutes and supplemental injections of ketamine/xylazine (at half the initial dose/injection) were administered as needed to maintain anesthesia. At the end of the 4-hour period, 2 sutures were placed in the upper eyelid and 1 suture was placed in the lower eyelid. A corneal/conjunctival cup was formed by using the sutures to lift the eyelids upward and the sutures taped to a stand. 1 mL methylene blue (1% solution in water) was added to the conjunctival cup and the cornea was stained with the solution for 5 minutes. The eye was then washed with 200 mL of a balanced salt solution. Corneal thickness was determined by non-invasive pachymetry. Three readings were taken for each animal. Corneal staining score was obtained by visualizing the cornea with a slit-lamp and determining the percentage of the cornea that was stained with methylene blue. A photograph was taken using the slit-lamp machine. The rabbit was then euthanized immediately by intravenous injection of Sleepaway® solution and the eye was excised. The cornea was isolated and an 8 mm punch of the central cornea collected. This corneal punch was placed in a small glass vial containing 2 mL acetone/saturated sodium sulfate (7:3, vol/vol). Absorbance of the extracted solution was measured at 660 nm with a spectrophotometer.
The naïve control animals were anesthetized with ketamine/xylazine/glycopyrrolate and the O.S. eye lubricated and taped shut. Sutures were immediately placed in the O.D. eyelids. The corneal cup was formed and the cornea was stained with methylene blue, washed with a balanced salt solution and collected, as described above. The data were converted to “percent protection” by subtracting from 1, the quotient of the test sample absorbances divided by the average of control sample absorbance, and multiplying by 100. The results are contained in Table 1 and illustrated in FIGS. 1 and 2: […]

CCCCC[C@H](O)/C=C/C=C\C/C=C\C/C=C\CCCC(=O)O [15(S)-HETE, 5,8,11,13-Eicosatetraenoic acid, 15-hydroxy-, [15S-(5Z,8Z,11Z,13E)]-]
% Protection (Ethanol 0.0 % (w/v)): 13%
% Protection (Ethanol 0.00505 % (w/v)): 2%
% Protection (Ethanol 0.0252 % (w/v), p < 0.05 versus control): 42%
% Protection (Ethanol 0.0505 % (w/v) (composition of Example 1), p < 0.05 versus control): 60%
% Protection (Ethanol 0.101 % (w/v)): 31%
